# In patent US20160022625A1, “TASHINONES AND THEIR DERIVATIVES: NOVEL EXCELLENT DRUGS FOR ALZHEIMER DISEASE” (priority 2013, published 2016):
# Where two headings read alike, the source gives them in different places.
# Legend:
# Aβ1-42 [1] = target: T1, Aβ1-42 (Homo sapiens, UniProt P05067); assay: ThT fluorescence assay of Aβ1-42 amyloid formation (inhibition assay); format: biochemical; details: 20 μM Aβ1-42, 37° C.; for final ThT fluorescence intensity reduced by: Aβ:TS=1:2, 24 hour
# T1 construct: Aβ1-42 peptide (≧95.5%) was all purchased from American Peptide Inc; purchased American Peptide Inc. (Sunnyvale, Calif.)
# Procedure: (§1) To examine the inhibitory effect of TS1 and TS2 on Aβ aggregation, the kinetics and morphological changes of Aβ1-42 amyloid formation in the presence of different molar ratios (Aβ:TS) of two tanshinone compounds were monitored by ThT fluorescence assay and AFM (Atomic force microscopy). 20 μM Aβ1-42 solution (with or without tanshinone) was incubated at 37° C. for 48 h. ThT fluorescence assay has been widely used to detect the formation of amyloid fibrils because the binding of thioflavin dyes to amyloid fibrils enables to reduce self-quenching by restricting the rotation of the benzothiozole and benzaminic rings, leading to a significant increase in fluorescence quantum yield. […] After 24 hour reaction, a strong ThT emission was observed and remained almost unchanged within statistic errors between 24 and 48 hour incubation.
# A homogeneous solution of Aβ monomers was required for inhibition tests. The purified Aβ1-42 powder was aliquoted in DMSO for 1 min and sonicated for 30 sec. The initiation of 20 μM Aβ1-42 [containing 1% (v/v) DMSO] aggregation in solution was accomplished by adding an aliquot of the concentrated DMSO-Aβ1-42 solution to 10 mM PBS buffer, followed by immediate vortexing to mix thoroughly. Aβ1-42 solution was then centrifuged with 14,000 rpm for 30 min at 4° C. to remove any existing oligomers, which 75% of the top solution was removed for further incubation or inhibition experiments. The pure Aβ1-42 solution was incubated at 37° C. as control. For Aβ inhibition experiments, 40 mM tanshinone (in DMSO) stock solution was dissolved in freshly prepared Aβ1-42 monomer solution to a final concentration of 20 μM and 40 μM (with Aβ:tanshinone molar ratio of 1:1 and 1:2), respectively. The mixed Aβ-tanshinone samples were incubated at 37° C.
# (§2) Aβ1-42 fibrillization and Aβ1-42 fibril disruption in the presence and absence of tanshinones were monitored by ThT fluorescence assay. 2 mM ThT store solution was prepared by adding 0.0328 g ThT powder into 50 mL DI water. 250 μL of the 2 mM ThT solution was further diluted into 50 mL Tris-buffer (pH=7.4) to reach a final concentration of 10 μM. 60 μL of 20 μM Aβ with or without tanshinone was put into 3 mL of 10 μM ThT-Tris solution. Fluorescence spectra were obtained using a LS-55 fluorescence spectrometer (Perkin Elmer Corp., Waltham, Mass.). All measurements were carried out in aqueous solution using a 1 cm×1 cm quartz cuvette. ThT fluorescence emission intensity of each sample was recorded between 460 and 510 nm with an excitation wavelength of 450 nm. Fluorescence intensity from solution without Aβ1-42 was subtracted from solution containing Aβ1-42. Each experiment was repeated in 3 independent samples and each sample was tested quadrupled.
# Aβ1-42 [2] = target: T1, Aβ1-42; assay: AFM morphology of Aβ1-42 incubated with tanshinones; details: Aβ:TS=1:1, within the first 4 hours
# Procedure: as §1
# The morphology change of Aβ fibrillization and disruption in the presence and absence of tanshinones was characterized by AFM. A 25 μL sample used in the Aβ1-42 ThT fluorescence assay was taken for AFM measurement at different time points to correlate Aβ morphology change with Aβ grow kinetics. […]
# Aβ1-42 fibrils = target: T2, Aβ1-42 fibrils (Homo sapiens, UniProt P05067); assay: Disruption assay of preformed Aβ fibrils (ThT fluorescence); format: biochemical; details: 20 μM Aβ fibrils, 37° C.; for decrease in ThT fluorescence of preformed Aβ fibrils vs untreated Aβ control: Aβ:TS=1:1, 48 hour co-incubation; for ThT intensity of preformed Aβ fibrils decreased by: Aβ:TS=1:2, 48 hour co-incubation
# T2 construct: Aβ1-42 peptide (≧95.5%) was all purchased from American Peptide Inc; purchased American Peptide Inc. (Sunnyvale, Calif.)
# Procedure: The alternative potential therapeutic strategy to treat AD (Alzheimer's Disease) is to reduce the amount of the existing amyloid plaques. A very few molecules have been reported to disaggregate Aβ amyloid. […] To determine the ability of Aβ fibril dissolution by tanshinone in vitro, we set up experiments in which tanshinone was incubated with preformed fibrils. 20 μM Aβ fibrils were first prepared by incubating Aβ monomers in solution for 48 hour, which is sufficient long enough for Aβ to grow into mature fibrils as evidenced through AFM images and ThT fluorescence (FIG. 2). Upon 48 hour incubation, Aβ fibril solution was then co-incubated with TS1 or TS2 with different molar ratios of Aβ:TS (1:1, 1:2, and 1:5) for another 48 hour at 37° C.
# Aβ1-42 fibrils were prepared by incubating 20 μM Aβ1-42 monomers for 48 h, which is sufficient long enough to enable Aβ peptides to grow into mature fibrils at a saturate state. The fibril solution was then divided into aliquots for the disruption tests. […] All the disruption samples were incubated at 37° C.
# as §2
# SH-SY5Y cells [3] = assay: Live/dead cell toxicity assay, tanshinone alone; format: cell-based
# Excerpt: (§3) In order to determine whether tanshinone compounds are able to protect neuronal cells from toxic Aβ species, we conducted cell viability experiments to compare the toxic effects of Aβ, TS1, TS2, Aβ-TS1, and Aβ-TS2 on the SH-SY5Y cells using the SH-SY5Y live/dead assay, which is widely used in studies of Aβ toxicity. Opti-MEM reduced serum medium was used to minimize the noise of fluorescence. We then set the cell death data obtained from Aβ-cell control experiment as a basis of 100% to normalize other data for comparison. […] When treated the cells with 8 μM TS1 or TS2 alone (Aβ:TS=1:0.4), cell death was 25.3% and 20.5% (FIG. 5), respectively. Considering the physiological concentration of Aβ is as low as 10^-9 M, 8 μM tanshinone may exceed a lethal dose to induce cell death. We thus reduced the concentation of TS1 or TS2 to a clinical trial level of 4 μM for cell viability tests. […] We then performed Aβ-tanshione cell toxicity experiments using a 1:0.2 mixture of tanshinones (4 μM) and Aβ (20 μM). […] TS1 appears to be less toxic than TS2 by 13.8%.
# (§4) All chemicals for cell culture were purchased from Life Technologies unless otherwise stated. Human neuroblastoma SH-SY5Y cell (ATCC, Manassas, Va., USA) was used as model neuron and cultured in 75 cm^2 T-flasks (Corning) in sterile-filtered Eagles Minimum Essential Medium and Ham's F-12 medium mixed at a 1:1 ratio containing 10% fetal bovine serum (EMEM, ATCC, Manassas, Va., USA), and 1% penicillin/streptomycin in 37° C., humidified air with 5% CO2. Cells were cultured to confluence, and harvested using 0.25 mg/ml Trypsin/EDTA solution (Lonza). Before adding Aβ and tanshinone, cells were re-suspended in Opti-MEM reduced serum medium and counted using a hemacytometer. Cells were then plated in a 24-well tissue culture plate with approximately 150,000 cells per well in 500 μl of Opti-MEM reduced serum medium, and allowed to attach for 24 hours inside the incubator.
# (§5) Aβ oligomers were prepared by incubating a 1 mM Aβ-PBS solution at 37° C. for 24 h. Aβ oligomers with a molar ratio of Aβ:tanshinone of 1:0.2 were added to each well to reach a final concentration of 20 μM. The cells were then left for 24 hours before cell toxicity tests. A live/dead cytotoxicity assay, which determines live and dead cells with two probes by measuring intracellular esterase activity and plasma membrane integrity, was used to obtain cell viability/toxicity data. Cells were stained by adding 2 μM of Calcein AM (Life Technologies) to distinguish the presence of live cells with a fluorescence excitation/emission of 494/517 nm, while by adding 5 μM of Ethidium homodimer-1 (Life Technologies) to distinguish the presence of dead cells with a fluorescence excitation/emission of 528/617 nm. The cells were incubated for 15 minutes with the live/dead assay contents to activate the fluorescent dyes. A Zeiss Axiovert 40 CFL inverted microscope fitted with filters at 510 nm and 600 nm was used to obtain fluorescence images of the live and dead cells. Fluorescence readings at 494/517 nm and 528/617 nm were detected using a Synergry H1 microplate reader (BioTek, Winooski, Vt.). Cell death in each incubation condition was normalized using the equation of ΔF=(Fi/FAβ)*100%, where ΔF is the percentage of cell death in different incubation conditions compared with the death of cells co-incubate with Aβ. Fi corresponds to the dead/live fluorescence signal of cells (blank control), cells co-incubate with TS1, cells co-incubate with TS2, cells co-incubate with Aβ and TS1, cells co-incubate with Aβ and TS2, and cells co-incubate with Aβ, respectively. FAβ represents the dead/live fluorescence signal of cells co-incubate with Aβ. The fluorescence signals of blank dyes were calibrated first and then subtracted from the fluorescence signals of medium solution.
# SH-SY5Y cells [4] = assay: Live/dead cell assay, protection from Aβ-induced toxicity; format: cell-based, Human; details: for protect cultured-cells from Aβ-induced toxicity by: co-incubation of Aβ with a very small amount of TSs; for percentage of dead cells (normalized to Aβ alone = 100%): tanshinone 4 μM + Aβ 20 μM (1:0.2), 24 hour, SH-SY5Y
# Excerpt: as §3, §4
# as §5, with “The cells were incubated for 15 minutes with the live/dead assay contents to activate the fluorescent dyes.” left out, “Cell death in each incubation condition was normalized using the equation of ΔF=(Fi/FAβ)*100%, where ΔF is the percentage of cell death in different incubation conditions compared with the death of cells co-incubate with Aβ.” left out
# T1 sequence (P05067 672-713 limits assumed): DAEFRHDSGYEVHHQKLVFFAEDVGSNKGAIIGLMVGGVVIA
# T2 sequence (P05067 672-713 limits assumed): as above
compound,measurement,setting,value
"Cc1coc2c1C(=O)C(=O)c1c-2ccc2c(C)cccc12 [TS1, tanshinone I]",ThT intensity relative to Aβ samples without inhibitors decreased by,"Aβ1-42 [1]; Aβ:TS=1:1, 24 hour",78.2%
same,ThT intensity relative to Aβ samples without inhibitors decreased by,"Aβ1-42 [1]; Aβ:TS=1:1, 48 hour",65.8%
same,final ThT fluorescence intensity reduced by,Aβ1-42 [1],88.5%
same,small spherical particles in AFM images,Aβ1-42 [2],1-3 nm
same,decrease in ThT fluorescence of preformed Aβ fibrils vs untreated Aβ control,Aβ1-42 fibrils,~0.8%
same,ThT intensity of preformed Aβ fibrils decreased by,Aβ1-42 fibrils,~30%
same,cell death (normalized to Aβ-treated cells = 100%),"SH-SY5Y cells [3]; 4 μM TS alone, 24 hour, SH-SY5Y",9.3%
same,cell death (normalized to Aβ-treated cells = 100%),"SH-SY5Y cells [3]; 8 μM TS alone, 24 hour, SH-SY5Y",25.3%
same,signs of cell death by fluorescence microscopy,"SH-SY5Y cells [3]; pure TS, 4 μM level, SH-SY5Y",no observable signs of cell death
same,protect cultured-cells from Aβ-induced toxicity by,SH-SY5Y cells [4],~57.5%
same,less toxic than TS2 by (difference in dead cells),SH-SY5Y cells [4]; tanshinone 4 μM + Aβ 20 μM,13.8%
same,percentage of dead cells (normalized to Aβ alone = 100%),SH-SY5Y cells [4],~57.5%
"Cc1coc2c1C(=O)C(=O)c1c-2ccc2c1CCCC2(C)C [TS2, tanshinone IIA]",ThT intensity relative to Aβ samples without inhibitors decreased by,"Aβ1-42 [1]; Aβ:TS=1:1, 24 hour",44.8%
same,ThT intensity relative to Aβ samples without inhibitors decreased by,"Aβ1-42 [1]; Aβ:TS=1:1, 48 hour",34.6%
same,final ThT fluorescence intensity reduced by,Aβ1-42 [1],83.4%
same,small spherical particles in AFM images,Aβ1-42 [2],1-6 nm
same,decrease in ThT fluorescence of preformed Aβ fibrils vs untreated Aβ control,Aβ1-42 fibrils,~0.8%
same,ThT intensity of preformed Aβ fibrils decreased by,Aβ1-42 fibrils,~30%
same,signs of cell death by fluorescence microscopy,SH-SY5Y cells [3],no observable signs of cell death
same,cell death (normalized to Aβ-treated cells = 100%),"SH-SY5Y cells [3]; human, 24 h, 4 μM",5.8%
same,cell death (normalized to Aβ-treated cells = 100%),"SH-SY5Y cells [3]; human, 24 h, 8 μM",20.5%
same,protect cultured-cells from Aβ-induced toxicity by,SH-SY5Y cells [4],~71.3%
same,percentage of dead cells (normalized to Aβ alone = 100%),SH-SY5Y cells [4],~71.3%
